Data published in patent US20160090578A1, “ENZYMES […] GLYCOSYLATION OF POLYPHENOLS” (priority 2013, published 2016).

Tests used:
MgtT = conditions: E. coli DH5α pDrive::mgtT, whole cell catalysis
Description: (§3) For the detection of flavonoid modifications in bacteria a biotransformation approach was used. Cultures were grown in LB medium with appropriate antibiotic overnight. Expression cultures were prepared as stated above for overproduction of enzymes. The cells were sedimented by centrifugation at 4,500 g and resuspended in 50 mM sodium phosphate buffer pH 7 supplemented with 1% (w/v) α-D-glucose. Biotransformations with a final concentration of 100 μM flavonoid inoculated from stock solutions of 100 mM in DMSO, i.e. 0.1%, were incubated in Erlenmeyer flasks at 30° C. and 175 rpm up to 24 hours. Samples of 4 mL were withdrawn and acidified with 100 μL H3PO4 aq for extraction in 2 mL ethyl acetate. They were shaken for 1 minute and phase separated by centrifugation at 2,000 g and 4° C. The supernatant was applied in TLC analysis. For quantification, samples of 100 μL were taken and dissolved 1/10 in ethyl acetate/acetic acid 3:1. These acidified ethyl acetate samples were centrifuged at 10,000 g. The supernatant was used for quantitative TLC analysis as stated below.

MgtB = assay: Biocatalytic reactions with purified recombinant His-tagged MgtB and UDP-glucose, quantified by TLC; assay type: biochemical, Bacillus sp. HH1500; conditions: for Acceptor substrate modification by His10-MgtB (in words): 500 μM UDP-α-D-glucose as donor, 100 μM acceptor substrate; for Conversion (%): 1 mL, 37° C., 2 hours, triplicate, 500 μM UDP-glucose, 100 μM flavonoid, 5 μg/mL purified recombinant MgtB
Description: (§1) The supernatant transferred into HPLC flat bottom vials was used for TLC analysis. Samples of 20 μL were applied on 20×10 cm^2 (HP)TLC silica 60 F254 plates (Merck KGaA, Darmstadt, Germany) versus 200 pmol of reference flavonoids. To avoid carryover of substances, i.e. prevent false positives, samples were spotted with double syringe rinsing in between by the ATS 4. The sampled TLC plates were developed in ethyl acetate/acetic acid/formic acid/water 100:11:11:27 (‘Universal Pflanzenlaufmittel’) (41). After separation the TLC plates were dried in an oven at 80° C. for five minutes. The absorbance of the separated bands was determined densitometrically depending on the absorbance maximum of the applied educt substances at 285 to 370 nm using the deuterium lamp in a TLC Scanner 3 (CAMAG, Muttenz, Switzerland). Subsequently, the substances on developed TLC plates were derivatized by dipping the plates in a methanolic solution of 1% (w/v) diphenyl boric acid β-aminoethyl ester (DPBA) (42) for one second using a Chromatogram Immersion Device (CAMAG, Muttenz, Switzerland) followed by drying the TLC plates in hot air with a fan. After two minutes the bands were visualized at 365 nm with a UV hand lamp and photographed. Alternatively, fluorescence of the bands was determined densitometrically by the TLC Scanner 3 depending on the absorbance maximum of the applied substances at 320 to 370 nm.
(§2) Samples of 20 μL were sprayed by an ATS 4 (CAMAG, Muttenz, Switzerland) on HPTLC silica 60 F254 plates (Merck KGaA, Darmstadt, Germany) versus different amounts of respective standard educt and product substances. TLC plates were developed, dried, derivatized and analyzed as stated above. Regression curves were calculated from the peak area of the applied reference substances to determine the amount of produced and residual flavonoids.

GtfC = assay: Biotransformation assays with E. coli expressing recombinant GtfC, quantified by TLC; assay type: cell-based, Elbe river sediment metagenome; conditions: for Conversion (%): whole-cell biotransformation, 50 mL, 50 mM sodium phosphate buffer pH 7.0, 1% (w/v) glucose, 200 μM flavonoid, 30° C., triplicate; for Conversion in GtfC biotransformation (in words): whole-cell biotransformation with E. coli expressing GtfC
Description: The supernatant was applied in TLC analysis.
as §1, §2

MgtC = assay type: cell-based, Bacillus sp. BCG+1; conditions: E. coli DH5α pDrive::mgtC, whole cell catalysis
MgtW = conditions: E. coli DH5α pDrive::mgtW, whole cell catalysis
Description: as §3

Compound | Acceptor substrate modification by His10-MgtB (in words) (MgtB) | Conversion (%) (MgtB) | Conversion (%) (GtfC) | Reaction in biotransformation with MgtC (MgtC) | further results
Cc1cc(=O)oc2cc(O)ccc12 [4-Methylumbelliferone, 7-Hydroxy-4-methylcoumarin] |  |  |  |  | Reaction in biotransformation with MgtT (MgtT): shown
O=c1c(-c2ccc(O)cc2)coc2cc(O)cc(O)c12 [Genistein] | modified with high yields | 72% | 68% |  | 
O=c1c(O)c(-c2ccc(O)cc2)oc2cc(O)cc(O)c12 [Kaempferol] | modified with high yields | ~100% | ~100% |  | Conversion (%) (MgtB; listed as kaempferol): approximately 100%
O=c1cc(-c2ccc(O)c(O)c2)oc2cc(O)cc(O)c12 [Luteolin] | modified with high yields | 82% | 86% | shown | 
COc1ccc(-c2cc(=O)c3ccc(O)cc3o2)cc1 [Pratol] |  |  |  |  | Conversion in GtfC biotransformation (in words) (GtfC): converted weakly
O=c1c(O)c(-c2ccc(O)c(O)c2)oc2cc(O)cc(O)c12 [Quercetin] | modified with high yields | ~100% | ~100% | shown | Reaction in biotransformation with MgtW (MgtW): shown; Conversion (%) (MgtB; listed as quercetin): approximately 100%; Conversion in GtfC biotransformation (in words) (GtfC): transformed almost completely
O=C(/C=C/c1ccc(O)cc1)OC[C@H]1O[C@@H](Oc2c(-c3ccc(O)cc3)oc3cc(O)cc(O)c3c2=O)[C@H](O)[C@@H](O)[C@@H]1O [Tiliroside, kaempferol-3-O-6″-coumaroyl-glucoside] | modified with high yields | 83% |  |  | 
COc1cc(O)c(CC=C(C)C)c(O)c1C(=O)/C=C/c1ccc(O)cc1 [Xanthohumol] |  |  | 52% |  | 
O=c1cc(-c2ccc(O)cc2)oc2cc(O)cc(O)c12 [apigenin] |  |  |  | shown | 
COc1cc([C@@H]2CC(=O)c3c(O)cc(O)cc3O2)ccc1O [homoeriodytiol] |  |  |  | shown | Reaction in biotransformation with MgtW (MgtW): shown; Reaction in biotransformation with MgtT (MgtT): shown
Cc1cc(=O)c2c(O)cc(O)cc2o1 [noreugenin] |  |  |  | shown | 
O=C(CCc1ccc(O)cc1)c1c(O)cc(O)cc1O [phloretin] |  |  |  | shown | Reaction in biotransformation with MgtW (MgtW): shown; Reaction in biotransformation with MgtT (MgtT): shown
Oc1ccc(/C=C/c2cc(O)cc(O)c2)cc1 [t-Resveratrol] |  |  | 96% |  | 
